Experimental data taken from US8263046B2, “N-phenyl-N-pyridinyl-benzamides and benzenesulfonomides having cooling properties” (Givaudan S.A., priority 2005, dated 2012).

System: panelists
Test: Experiments on cooling properties/intensities: panelists taste aqueous solutions
Format: in vivo
Details: aqueous solution with cooling intensity similar or slightly higher than that of a solution of I-menthol at 2 ppm

Compound | Concentration [ppm]
O=S(=O)(c1ccc(Cl)cc1)N(CCc1ccccn1)c1ccccc1 [Example 3a, 4-Chloro-N-phenyl-N-[2-(pyridin-2-yl)ethyl]benzenesulfonamide] | 2
COc1ccc(C(=O)N(CCc2ccccn2)c2ccccc2)cc1 [Example 1, 4-Methoxy-N-phenyl-N-[2-(pyridin-2-yl)ethyl]benzamide] | 1.5
CCNC(=O)C1CC(C)CCC1C(C)C (stereo not shown) [WS-3, N-ethyl p-menthanecarboxamide, reference compound] | 1.5
COc1ccc(S(=O)(=O)N(CCc2ccccn2)c2ccccc2)cc1 [Example 2, 4-Methoxy-N-phenyl-N-[2-(pyridin-2-yl)ethyl]benzenesulfonamide] | 2
